# Assay results reported in patent publication US20090111177A1, “Maintenance of Embryonic Stem Cells by the GSK-3 Inhibitor 6-Bromoindirubin-3'-Oxime” (THE ROCKEFELLER UNIVERSITY, priority 2003, published 2009).
# Entries after “also recorded” stand apart in the source; their conditions may differ.
# Experiments:
# cyclin D1 = cyclin D1 immunofluorescence in HESCs; type: cell-based, human; conditions: HESCs (BGN2); non-CM; 6-bromoindirubin-3′-oxime 1.0 μM or Wnt3a protein 100 ng; FIG. 7
# Method: Immunofluorescence. HESCs were grown in conditioned medium (CM), non-CM, non-CM containing Me 6-bromoindirubin-3′-oxime (1.0 μM), non-CM containing 6-bromoindirubin-3′-oxime (1.0 μM) or non-CM containing recombinant mouse Wnt3a protein (100 ng/ml, R&D systems) for 5 d. Cells were fixed in 4% paraformaldehyde for 20 min at room temperature and incubated overnight at 4° C. with primary antibodies against cyclin D1 (Santa Cruz Technology, Santa Cruz, Calif.). Antigens were localized by using goat anti-rabbit IgG conjugated to Cy3 (Zymed laboratories).
# Rex-1 promoter = assay: Rex-1 luciferase reporter assay in CJ7 cells; type: cell-based, mouse
# Excerpt: Nat Biotechnol 20, 87-90), a small fragment containing the TCF binding sites and the cFos promoter in pTopFlash was excised by XbaI digestion, and cloned into pcDNA3-Venus in which Venus was introduced into the multiple cloning site between BamHI and EcoRI of the pcDNA3 vector (Invitrogen) whose CMV promoter was eliminated by BglII and HindIII digestion. […] To generate the Rex-1-Venus reporter construct, the Rex-1 promoter region was cloned into pcDNA3-Venus.
# (§1) Luciferase assay. […] Test compounds were added 24 hrs after transfection. Following incubation for 24 hrs, cells were harvested, and analyzed by the dual luciferase reporter assay system (Promega) using Lumat (Berthold Technologies). Each value was standardized by Renilla luciferase activity.
# H1 cells = assay: Differentiation of HESCs into neurons on PA6 stromal cells; type: cell-based, human; conditions: comparable to conditioned medium-treated cells
# Excerpt: Differentiation of ES cells into neurons. The PA6 stromal cell line (RIKEN) was used for the co-culture system (Kawasaki et al., 2002, Generation of dopaminergic neurons and pigmented epithelia from primate ES cells by stromal cell-derived inducing activity. Proc Natl Acad Sci USA 99, 1580-1585). H1 cell colonies grown on Matrigel under different conditions for 7 d were harvested and cultured (100˜200 cells/clump, approximately 5 clumps/well of a 12-well plate) on PA6 stromal cells in 90% Knockout-Dulecco's modified Eagle's medium, 10% KSR, 1 mM L-glutamine, 1% non-essential amino acids, 0.1 mM β-mercaptoethanol for 3 weeks as previously described (Sato et al., 2003, Molecular signature of human embryonic stem cells and its comparison with the mouse. Dev Biol 260, 404-413). At the end of the culture period, cells were stained with a neuron-specific antibody, Tuj-1, as shown below. The number of wells containing Tuj-1 positive neurons was determined in each condition in repeated experiments.
# Oct-3/4 = Oct-3/4 immunocytochemistry in HESCs; type: cell-based, human
# Method: (§2) Cell culture. Human embryonic stem cells (HESCs) lines were provided by WiCell Research Institute (H1 line)^5 and BresaGen Inc. (BGN1 and BGN2 lines). H1 cells were cultivated on irradiated mouse embryonic fibroblasts (MEFs) in medium consisting of 80% DMEM/F12 medium, 20% knockout serum replacement (KSR), 1 mM L-glutamine, 1% non-essential amino acids, 0.1 mM β-mercaptoethanol, and 4 ng/ml basic FGF (all from Invitrogen). […] Subsequently, HESCs were cultured on Matrigel (BD biosciences) in medium conditioned by MEFs, and passaged several times until colonies became free from contaminating MEFs as described before^9.
# Immunofluorescence. Cells were fixed in 4% paraformaldehyde for 20 min at room temperature and incubated overnight at 4° C. with primary antibodies against Oct-4 (BD Biosciences), β-catenin (BD Biosciences), Tuj-1 (BAbCO), cytokeratin (Sigma), glial fibrillary acidic protein, GFAP, (Dako), smooth muscle actin (Research Diagnostics Inc), α-fetoprotein (α-FP, Cell Sciences) and Tromal (Developmental Studies Hybridoma Bank). For nuclear localization analysis, the fixed samples were subjected to fluorescent digital confocal imaging analysis using a Zeiss LSM 510 confocal microscope (Carl Zeiss). For mouse embryonic tissue sections, mid gestation embryos were fixed in 4% paraformaldehyde followed by paraffin embedding and tissue sectioning. After deparaffinization, tissue sections were incubated with a GFP-specific antibody (Molecular Probe) at 4° C. overnight. Antigens were localized by using goat anti-mouse IgG conjugated to Cy3 or goat anti-rabbit IgG conjugated to Cy2 (Zymed laboratories). For the quantitative image analysis, fluorescent images from triplicate samples were taken by the Discovery1 system (Universal Imaging Corporation). The fluorescent objects were selected by the threshold function and evaluated in five regions of each well by quantification of pixel intensities and the object size by using MetaMorph software (Universal Imaging Corporation).
# [1] = test system: Oct-3/4 and Nanog transcripts; assay: Northern analysis of HESCs; type: cell-based, human; conditions: 7 d
# Method: Northern analysis. Total RNA was isolated from cells by using Qiashredder and RNAeasy mini kit (Qiagen). The extracted RNA sample was quantified by UV spectrophotometer, and qualified by the RNA Nano Lab chip (Agilent Technologies). Ten μg of total RNA was electrophoresed on 1% agarose/formaldehyde gel and transferred onto a nylon membrane (Stratagene). Probes specific for human Oct-4 and human Nanog were prepared by RT-PCR using gene specific primer pairs (shown below) and the template cDNA generated from undifferentiated H1 cells, and radio-labeled with ^32P-dCTP by Prime-it probe labeling kit (Stratagene). The membrane was hybridized with the labeled probe using Perfecthybri (Sigma) and subjected to detection by Phosphor Imager (Amersham Biosciences).
# β-catenin = β-catenin immunofluorescence confocal analysis in HESCs; type: cell-based, human; conditions: compared to non-conditioned medium treated cells, FIG. 2c
# Method: as §2
# Immunofluorescence. […] For the quantitative image analysis, fluorescent images from triplicate samples were taken by the Discovery1 system (Universal Imaging Corporation). The fluorescent objects were selected by the threshold function and evaluated in five regions of each well by quantification of pixel intensities and the object size by using MetaMorph software (Universal Imaging Corporation).
# HESCs (H1, BGN1) = assay: Feeder-free culture of HESCs, undifferentiated morphology; type: cell-based, human; conditions: feeder-free, non-conditioned medium; 7 d; 6-bromoindirubin-3′-oxime and Me analogue 2 μM, LiCl 5 mM, Wnt3a protein
# Method: as §2
# [2] = test system: canonical Wnt pathway (TCF binding sites, TopFlash); assay: TopFlash/FopFlash luciferase reporter assay in CJ7 cells (MESCs); type: cell-based, mouse; conditions: FIG. 2b
# Method: as §1
# The canonical Wnt signal occurs through binding of the Wnt protein to the Frizzled receptor at cell surface. It is followed by inactivation of GSK-3, leading to accumulation of β-catenin in the nucleus that activates the transcription of Wnt target genes in collaboration with TCFs^18,19. Alternatively, Wnt signaling can be activated by direct, intracellular inhibition of the GSK-3 function using specific inhibitors^20. […] First we examined whether mouse and human ESCs were capable of transducing Wnt signaling under the influence of 6-bromoindirubin-3′-oxime. […] We then evaluated expression of β-catenin at the cellular level as a read-out of the activation status of the canonical Wnt pathway in HESCs.
structure (smiles),measurement,setting,value
O=C1Nc2cc(Br)ccc2/C1=C1/Nc2ccccc2/C1=N\O [6-bromoindirubin-3′-oxime],cyclin D1 expression,cyclin D1,upregulated; also recorded: up-regulated cyclin D1 expression
same,Rex-1 promoter activity,"Rex-1 promoter; CJ7 cells, compared to LIF-treated cells",substantial upregulation
same,Rex-1 transcriptional activation with dominant negative TCF-3 construct,Rex-1 promoter; cells transfected with dominant negative TCF-3,largely abolished
same,neurogenesis on stromal feeders (Tuj-1),H1 cells,robust neurogenesis
same,Oct-3/4 expression at the cellular level,"Oct-3/4; HESCs in non-conditioned medium, FIG. 4c",sustained Oct-3/4 expression
same,Oct-3/4 expression by quantitative imaging analysis,"Oct-3/4; versus conditioned medium treatment, data not shown",comparable level of Oct-3/4 expression
same,Nanog transcript level,[1],substantial level of Nanog transcripts was preserved
same,Oct-3/4 transcript level,[1]; compared to conditioned medium-treated cells,substantial level of the Oct-3/4 transcript was maintained
same,nuclear accumulation of β-catenin,β-catenin,nuclear accumulation of β-catenin
same,morphology / undifferentiated phenotype of HESCs,"HESCs (H1, BGN1)",largely retained an undifferentiated morphology
same,TopFlash reporter activity,[2]; CJ7 cells (MESCs),remarkable increase in TopFlash reporter activity in a dose-dependent manner
same,FopFlash reporter activity,"[2]; CJ7 cells, non-responsive mutated binding sites",no substantial change in FopFlash reporter activity
